Results published in patent US11738099B2, “Molecular probes and methods of use” (CASE WESTERN RESERVE UNIVERSITY, priority 2014, dated 2023).
Where no end group is shown, it is not given here.

Tests used:
LNCaP cell clusters = experiment: ZD2-Cy5.5 binding, 3D matrigel culture of LNCaP cells; assay type: cell-based; details: 250 nM, 1 h
Experimental: (§1) All reagents for chemical synthesis were purchased from Sigma Aldrich unless stated otherwise. PC3 and LNCaP cells were purchased from American Type Culture Collection (ATCC, Manassas, Va., USA), and grown in RPMI medium (Thermo Fisher Scientific, Waltham, Mass., USA) supplemented with 10% Fetal Bovine Serum (FBS) and 1% Penn/Strep at 37° C. in 5% CO2. To construct GFP-expressing cell lines, cells were transfected with lentivirus as previously reported. Matrigel 3D culture was formed following the 3D “on-top” protocol. Briefly, a glass-bottom plate was coated with a thick layer of freshly thawed matrigel, followed by solidifying the matrigel at 37° C. for 15-30 min. Cells were then plated onto the coated plate with medium containing 5% matrigel. The culture was maintained for at least 4-6 days and then ZD2-Cy5.5 (250 nM) was added to the culture medium. After 1 h, cells in the 3D matrigel were imaged with confocal laser fluorescence microscopy.

[1] = test system: PC3 prostate tumor xenografts; experiment: Ex vivo fluorescence imaging, PC3 mouse model; assay type: in vivo; details: 3 hours after intravenous injection, 10 nmol
Experimental: (§2) After fluorescence imaging of the organs, they were embedded in O.C.T and sectioned at 5 μm thickness, and mounted on to glass slides. The slides were fixed and permeabilized with cold acetone, followed by blocking with 1% BSA for 1 hour. DAPI or EDB-FN specific antibody, BC-1 (Abcam, Cambridge, Mass.), were applied subsequently for staining. Unbound antibodies were washed with TBS-T (0.1%). Alexa Fluor 594-conjugated goat anti-mouse IgG H&L (Abcam) was used as the secondary antibody. Prolong Gold antifade solution (Invitrogen, Grand Island, N.Y.), was used to cover the slides. The stained tissue sections were imaged using confocal laser scanning microscopy.
(§3) The targeted binding of ZD2-Cy5.5 to the prostate tumor was assessed ex vivo using Maestro FLEX In vivo Imaging System (Caliper Life Sciences, Hopkinton, Mass.) using a red filter set (spectral range of 630-910 nm, 1000 ms exposure time). ZD2-Cy5.5 (10 nmol) was administered to study the in vivo distribution of ZD2-based probes. At 3 h post-injection, the mice were sacrificed to image the tumors and the organs.

MCF-7 cells = experiment: ZD2-Cy5.5 binding, 3D culture of MCF-7 cells; assay type: cell-based; details: 250 nM, 1 h, confocal microscopy
Experimental: (§4) MDA-MB-231, Hs578T, BT549, MCF-7, ZR-75-1 and T47D were acquired from American Type Culture Collection (ATCC, Rockville, Md., USA). MDA-MB-231 cells were maintained in Dulbecco Modified Eagle Medium (DMEM) supplemented with 10% fetal bovine serum (FBS) and 5% penicillin/streptomycin (pen/strep). Hs578T, BT549 and MCF-7 cells were maintained in Eagle Minimum Essential Medium (EMEM) supplemented with 0.01 mg/ml human recombinant insulin, 10% FBS and 5% pen/strep. ZR-75-1 and T47D were maintained in RPMI 1640 medium supplemented with 10% FBS and 5% pen/strep. Three-dimensional culture of cells was achieved by an “on-top” matrigel method reported previously. Briefly, on a glass-bottom plate a thick layer of matrigel was coated, followed by plating MDA-MB-231 or MCF-7 cells on top of the matrigel. Once 3D sphere or clusters formed, ZD2-Cy5.5 was added to the medium to the final concentration of 250 nM. Binding of ZD2-Cy5.5 to the 3D spheres was evaluated using a confocal laser scanning microscope (Olympus Corporation, Tokyo, Japan) after culturing for 1 h.

MDA-MB-231 tumours [2] = experiment: Fluorescence imaging of tumours, organs and sections, MDA-MB-231 model; assay type: in vivo, mouse
Experimental: (§5) To determine the distribution of ZD2-Cy5.5 in the major organs and tumours, 10 nmol ZD2-Cy5.5 was injected in tumour-bearing mice through the tail vein. At 3 h after injection, mice were sacrificed. Tumours and organs were collected and imaged with CSi Maestro imaging system (Woburn, Mass., USA) using the deep red filter sets (exposure time: 1000 ms).
(§6) Tumours were embedded in Optimum Cutting Temperature Compound (OCT) and kept froze in −80° C. Tumour tissues sectioned at the thickness of 5 μm were then fixed and permeabilized with cold acetone. BSA (1%) in PBS was used to block the tissue at room temperature for 1 hour. Mouse anti-EDB-FN antibody, BC-1 (ab154210, Abcam, Cambridge, Mass., USA), diluted with 1% BSA (1:500) was applied to the tissue and incubated at room temperature for 1 hour. After extensive washing, AlexFluor594-conjugated anti-mouse IgG antibody (1:500) (Invitrogen, Eugene, Oreg., USA) was applied and incubated with the tissue for 1 hour. Tissue sections were then counterstained with Prolong Gold antifade mounting medium with DAPI (Invitrogen). Confocal laser scanning microscopy (FV1000, Olympus, Japan) was used to acquire the fluorescence images of the tissues. H&E staining of the tissue was performed at the tissue resource core of Case Western Reserve University. H&E staining images were acquired using the Virtual slide microscope VS120 (Olympus).

MDA-MB-231 spheres = experiment: ZD2-Cy5.5 binding, 3D culture of MDA-MB-231 cells; assay type: cell-based; details: 250 nM, 1 h, confocal microscopy
Experimental: as §4

[3] = test system: LNCaP prostate tumor xenografts; experiment: Ex vivo fluorescence imaging and sections, LNCaP mouse model; assay type: in vivo; details: confocal microscopy
Experimental: as §2, §3

PC3 spheroids = experiment: ZD2-Cy5.5 binding, 3D matrigel culture of PC3 cells; assay type: cell-based; details: 250 nM, 1 h
Experimental: as §1

MCF-7 tumours [4] = experiment: Fluorescence imaging of tumour sections, MCF-7 model; details: mouse, in vivo
Experimental: as §5, §6

[5] = test system: Hs578T and ZR-75-1 xenografts; experiment: MRI at 7 T, mice bearing Hs578T and ZR-75-1 xenografts; assay type: in vivo, mouse; details: 20 μmol Gd/kg, 30 min
Experimental: (§7) Female athymic nude mice were purchased from the Case Comprehensive Cancer Center and housed in the Case Center Imaging Research. All animal experiments were carried out according to a protocol approved by the IACUC of Case Western Reserve University. To initiate tumour xenografts, cells cultured in 150 mm dishes were trypsinized and centrifuged. Cell pellets from each dish were suspended in 100 μL PBS and reconstituted with Corning Matrigel Matrix High Concentration (Corning, Corning, N.Y., USA) to a concentration of 2×10^7 cells/mL on ice. The suspended cells in 100 μL matrigel solution were injected subcutaneously in the flank of mice (4-6 weeks) using a 19-gauge needle. After injection, a plug in flank was formed due to matrigel gelling. Tumours were allowed to grow for at least a month before imaging. […]
(§8) MR images of the mice bearing MDA-MB-231 or MCF-7 tumour xenografts were acquired on an Aspect M3 small animal MRI scanner (1 Tesla). […] Images were exported into DICOM data, which were then processed and analyzed using Matlab (Natick, Mass., USA). The contrast-to-noise ratio of tumours in the images was calculated as the difference between tumour mean intensity minus muscle mean intensity, divided by the noise. […] The images were similarly analyzed as described above.

MCF-7 tumours [6] = experiment: MRI at 1.0 Tesla, MCF-7 tumours; assay type: in vivo, mouse; details: 1.67 μmol/kg i.v.
Experimental: MR images of the mice bearing MDA-MB-231 or MCF-7 tumour xenografts were acquired on an Aspect M3 small animal MRI scanner (1 Tesla). Mice were placed on a holder with the temperature maintained at 37° C., with isoflurane/oxygen mixture supplied to the mice through a nose cone. A thin catheter filled with PBS was connected to the tail vein of the mice. After mice were placed in the coil, a pilot scan was performed to adjust mice to the proper location in the coil. An axial T1-weighted sequence (TR=500 ms; TE=9 ms; Flip angle=90°; Field of view=3 cm×3 cm; Matrix size=128×128×8; slice thickness=2 mm; inter-slice distance=1 mm) was then used to acquire the images of the tumours before and 10 min, 20 min, and 30 min after contrast injection. Images were exported into DICOM data, which were then processed and analyzed using Matlab (Natick, Mass., USA). The contrast-to-noise ratio of tumours in the images was calculated as the difference between tumour mean intensity minus muscle mean intensity, divided by the noise. Three-dimensional images of mice were acquired using a gradient echo T1-weighted sequence with the following parameters: TR=17 ms; TE=6 ms; Flip angle=15°; Field of view=3.5 cm×8 cm; Matrix size=128×512×16; slice thickness=1.5 mm. […] The images were similarly analyzed as described above.

Water solubility = assay type: physicochemical; details: gadofullerene agent
[7] = In vitro transmetallation assay with human serum; assay type: in vitro ADME; details: 2 h
Experimental: We performed in vitro transmetallation assay according to the protocol reported previously. Briefly, ZD2-Gd3N@C80 (0.02 mM Gd/mL) was incubated with human serum for 2 h. According to previous reports, transmetallation of Gd with Zn^2+, Cu^2+ and Ca^2+ bound in serum proteins occurs rapidly and 2 h is sufficient to study the equilibrium of transmetallation. The mixtures were then centrifuged at 4000 rpm and 25° C. for 150 min using CF-10 centrifugal filters (molecular weight cutoff 10 kDa). Metal ions in both the upper reservoir and the filtrates were quantified by ICP-OES. […] The degree of transmetallation of ZD2-Gd3N@C80 with Zn^2+, Cu^2+ and Ca^2+ ions in serum was evaluated using the percentage of Zn^2+, Cu^2+ and Ca^2+ ions filtered through the membrane, calculated as Transmetallation (%)=(concentration of ions in the filtrates)/(total ion concentrations before filtration)×100. Human serum was used a control.

MDA-MB-231 tumours [8] = experiment: MRI at 1.0 Tesla, MDA-MB-231 tumours; assay type: in vivo, mouse
Experimental: MR images of the mice bearing MDA-MB-231 or MCF-7 tumour xenografts were acquired on an Aspect M3 small animal MRI scanner (1 Tesla). Mice were placed on a holder with the temperature maintained at 37° C., with isoflurane/oxygen mixture supplied to the mice through a nose cone. A thin catheter filled with PBS was connected to the tail vein of the mice. After mice were placed in the coil, a pilot scan was performed to adjust mice to the proper location in the coil. An axial T1-weighted sequence (TR=500 ms; TE=9 ms; Flip angle=90°; Field of view=3 cm×3 cm; Matrix size=128×128×8; slice thickness=2 mm; inter-slice distance=1 mm) was then used to acquire the images of the tumours before and 10 min, 20 min, and 30 min after contrast injection. Images were exported into DICOM data, which were then processed and analyzed using Matlab (Natick, Mass., USA). The contrast-to-noise ratio of tumours in the images was calculated as the difference between tumour mean intensity minus muscle mean intensity, divided by the noise. Three-dimensional images of mice were acquired using a gradient echo T1-weighted sequence with the following parameters: TR=17 ms; TE=6 ms; Flip angle=15°; Field of view=3.5 cm×8 cm; Matrix size=128×512×16; slice thickness=1.5 mm. Analysis of the change in signal intensity in muscle, heart, liver, kidney, and bladder was performed using Matlab. MRI at 7 Tesla was performed on a horizontal Bruker scanner. T1-weighted spin echo sequence with the following parameters was used: field of view (FOV): 3 cm; slice thickness: 1.2 mm; interslice distance: 1.2 mm; TR: 500 ms, TE: 8.1 ms; flip angle: 90°; average: 2; matrix size: 128×128. The images were similarly analyzed as described above.

[9] = test system: BT549 and T47D xenografts; experiment: MRI at 7 T, mice bearing BT549 and T47D xenografts; assay type: in vivo, mouse; details: 20 μmol Gd/kg, 30 min
Experimental: as §7, §8

Size by TEM and DLS = assay type: physicochemical
[10] = Relaxivity measurement of gadofullerenes; assay type: physicochemical
Experimental: Infrared spectrum of ZD2-Gd3N@C80 was performed using the Cary 630 FTIR Spectrometer (Agilent Technologies, Santa Clara, Calif., USA). Lyophilized hydroxylated Gd3N@C80 or ZD2-Gd3N@C80 was reconstituted to a serial dilution in water. The solutions were pipetted in NMR tubes (500 μL in each tube), and placed in a relaxometer (Bruker) at 1.5 Tesla. For relaxivity measurement at 7 Tesla, NMR tubes containing contrast agent solutions were bundled and placed in a mouse coil in a horizontal 7 Tesla Bruker scanner (Bruker Biospin Co., Billerica, Mass.). T, maps of the solutions were acquired using a previously reported method^29. T1 and T2 values of each solution were measured. The r1 and r2 relaxivities of the contrast agent were calculated as the slope of the plot of 1/T1 and 1/T2 relaxation rates against the concentrations.

ZD2-Cy5.5: linear ZD2 peptide with PEG spacer conjugated to Cy5.5 NHS ester (TVRTSAD; also: PEG spacer conjugated to Cy5.5 NHS ester)
binding to LNCaP cell clusters (LNCaP cell clusters): no peptide binding was detected | fluorescence signal of PC3 tumors vs normal organs [1]: enhanced fluorescence signal | binding and fluorescence of MCF-7 cells (MCF-7 cells): lower ZD2-Cy5.5 binding and weaker fluorescence intensity | fluorescence intensity in MDA-MB-231 tumours vs MCF-7 tumours and normal tissues (MDA-MB-231 tumours [2]; 0.5 μmol/kg i.v., 3 hours after injection): greater | fluorescence signal in the liver and kidneys (MDA-MB-231 tumours [2]; 3 hours after injection): Relatively high fluorescence signal intensity | Cy5.5 fluorescence of MDA-MB-231 tumour sections (MDA-MB-231 tumours [2]; mouse, in vivo): strong Cy5.5 fluorescence | fluorescence of MDA-MB-231 spheres (MDA-MB-231 spheres): strong fluorescence intensity | probe in LNCaP tumor sections [3]: undetectable | binding to PC3 spheroids (PC3 spheroids): able to bind EDB-FN secreted by the PC3 spheroids | ZD2-Cy5.5 binding in MCF-7 tumour sections (MCF-7 tumours [4]): little

ZD2-Gd3N@C80: ZD2-Cys peptide conjugated to maleimido hydroxylated gadofullerene Gd3N@C80, about one peptide per cage (CTVRTSAD; also: conjugated to maleimido hydroxylated gadofullerene Gd3N@C80, about one peptide per cage)
signal enhancement and CNR increase in Hs578T vs ZR-75-1 tumours [5]: greater signal enhancement and significantly higher CNR increase | signal enhancement in MCF-7 tumours (MCF-7 tumours [6]): little enhancement | water solubility (Water solubility): complete water solubility | transmetallation [7]: < 0.12% | signal enhancement in MDA-MB-231 tumours (MDA-MB-231 tumours [8]; 1.67 μmol/kg i.v., 1.0 Tesla, at least 30 minutes): Significant signal enhancement | signal enhancement in MDA-MB-231 tumours with co-injection of ZD2 peptide (MDA-MB-231 tumours [8]; 1.67 μmol/kg with 25 μmol/kg ZD2 peptide): significantly reduced the signal enhancement | increase of contrast-to-noise ratio (CNR) in MDA-MB-231 tumours (MDA-MB-231 tumours [8]; 1.67 μmol/kg, 10-30 min): 39 to 45% | signal enhancement and CNR increase in BT549 vs T47D tumours [9]: greater signal enhancement and significantly higher CNR increase | average radius (Size by TEM and DLS; DLS): 1.40 nm | average diameter (Size by TEM and DLS; TEM and DLS): 2.8 nm | r1 relaxivity per Gd(III) ion ([10]; 1.5 Tesla): 74.6 mM⁻¹ s⁻¹ | r1 relaxivity per molecule ([10]; 1.5 Tesla): 223.8 mM⁻¹ s⁻¹ | r1 relaxivity per Gd(III) ion ([10]; 7 Tesla): 24.78 mM⁻¹ s⁻¹ | r1 relaxivity relative to clinical Gd(III)-based contrast agents ([10]; vs Gd-DTPA and Gd(HP-DO3A)): ~20 times
